# Data published in US7807712B2, “Oxy substituted chalcones as antihyperglycemic and antidyslipidemic agents” (priority 2004, dated 2010).
# Like-named read-outs stand apart in the source and are kept apart here.
# Legend:
# sucrose loaded rats = assay: Sucrose loaded rat model (SLM), antihyperglycemic activity; format: in vivo, rat (Charles Foster/Wistar); conditions: Rattus norvegicus, 2 h; 100 mg/kg oral; sucrose load 10.0 g/kg; AUC vs control, 30-120 min; read-out: % Fall in blood glucose levels SLM
# Procedure: Male albino rats of Charles Foster/Wistar strain of average body weight 160±20 g were selected for this study. The blood glucose level of each animal was checked by glucometer using glucostrips (Boehringer Mannheim) after 16 h starvation. Animals showing blood glucose levels between 3.33 to 4.44 mM (60 to 80 mg/dl) were divided into groups of five to six animals in each. Animals of experimental group were administered suspension of the desired synthetic compound orally (made in 1.0% gum acacia) at a dose of 100-mg/kg-body weight. Animals of control group were given an equal amount of 1.0% gum acacia. A sucrose load (10.0 g/kg) was given to each animal orally exactly after 30 min post administration of the test sample/vehicle. Blood glucose profile of each rat was again determined at 30, 60, 90 and 120 min post administration of sucrose by glucometer. Food but not water was withheld from the cages during the course of experimentation. Quantitative glucose tolerance of each animal was calculated by Area Under Curve (AUC) method (Prism Software). Comparing the AUC of experimental and control groups determined the percentage antihyperglycemic activity. Statistical comparison was made by Dunnett's test.
# [1] = test system: streptozotocin-induced diabetic rats; assay: Sucrose-challenged streptozotocin-induced diabetic rats (STZ-S), antihyperglycemic activity; format: in vivo, rat (Sprague Dawley); conditions: 100 mg/kg oral, sucrose load 2.5 g/kg, AUC vs control
# Procedure: Male albino rats of Sprague Dawley strain of body weight […] were selected for this study. Streptozotocin (Sigma, USA) was dissolved in 100 mM citrate buffer pH 4.5 and calculated amount of the fresh solution was injected to overnight fasted rats (45 mg/kg) intraperitoneally. Blood glucose level was checked 48 h later by glucostrips and animals showing blood glucose values between 144 to 270 mg/dl (8 to 15 mM) were included in the experiment and termed diabetic. The diabetic animals were divided into groups consisting of five to six animals in each group. Animals of experimental groups were administered suspension of the desired test samples orally (made in 1.0% gum acacia) at a dose of 100-mg/kg-body weight. Animals of control group were given an equal amount of 1.0% gum acacia. A sucrose load of 2.5-g/kg body weight was given after 30 minutes of compound administration. After 30 minutes of post sucrose load blood glucose level was again checked by glucostrips at 30, 60, 90, 120, 180, 240, 300 min and at 24 h, respectively. Animals not found diabetic after 24 hours post treatment of the test sample were not considered and omitted from the calculations and termed as non-responders. […] Food but not water was withheld from the cages during the experimentation. Comparing the AUC of experimental and control groups determined the percent antihyperglycemic activity. Statistical comparison between groups was made by Student's ‘t’ test.
# [2] = test system: triton WR-1339 induced hyperlipidemic rats; assay: Triton model, antidyslipidemic activity; format: in vivo, rat (Charles foster); conditions: Rattus norvegicus, 100 mg/kg oral
# Procedure: Male Charles foster rats weighing 200-225 g were divided into control, hyperlipidemic and hyperlipidemic plus drug treated groups containing six animals in each group. Hyperlipidemia was induced by administration of triton WR-1339 (200 mg/kg i.p.). All animals were maintained on a special pellet diet and water ad libitum. Compounds and standard drug were macerated with 0.2% aqueous gum acacia suspension. The suspension was fed orally at the dose of 100 mg/kg simultaneously with triton in drug treated group. The animals of control group received the same amount of gum acacia by similar route of administration. At the end of the experiment, after 18 h, blood was withdrawn from retro orbital plexus and plasma was used for the assay of total cholesterol, phospholipid and triglycerides.
# Cholesterol was estimated using the kit provided by Roche Diagnostics. Cholesterol esters are enzymatically hydrolyzed by cholesterol esterase (CE) to cholesterol and free fatty acids. Free cholesterol, including that originally present, is then oxidized by cholesterol oxidase (CO) to cholest-4-en-3-one and hydrogen peroxide. The hydrogen peroxide combines with hydroxy benzoic acid (HBA) and 4-aminoantipyrine (4AAA) in the presence of peroxidase (POD) to form a chromophore (quinoneimine dye), which may be quantitated at 500-505 nm. The intensity of red colour formed is directly proportional to the concentration of total cholesterol in the specimen and measured spectrophotometrically (Searcy, C. L. Diagnostic Biochemistry, 1969, McGraw Hill, New York; Ellefson, R. D.; Caraway, W. T. Fundamentals of clinical chemistry, 1976, Ed Tietz N W, 506-515.)
# Triglycerides were estimated using the kit provided by Roche Diagnostics. Lipoprotein lipase hydrolyses triglycerides to yield glycerol and fatty acids. Glycerol kinase converts glycerol to glycerol-3-phosphate, which is oxidized by glycerol phosphate oxidase to dihydroxy acetone phosphate and hydrogen peroxide. In the presence of peroxidase, hydrogen peroxide oxidatively couples with 4-aminoantipyrine and 4-chloro phenol to produce red quinonimine dye. The intensity of red colour formed is directly proportional to the concentration of triglycerides in the specimen and is measured by photometrically (Wahlefeld, A. W.; Bergmeyer, H. U. Ed. Methods of enzymatic analysis, 2nd English edition, New York, N.Y., Academic press inc, 1831-1840.).
# Serum (0.2 mL) and perchloric acid (1.0 mL) was digested at 180° C. for 1-1.5 h till the solution became colorless. The liberated inorganic phosphate (Pi) was measured by the method of Fiske and Subbarow (Fiske, C. H.; Subbarow, V. J. Biol. Chem. 1925, 66, 375.). 1 mL of 2.5% ammonium molybdate (prepared in 5 N sulphuric acid) and 0.5 mL reducing agent (4-amino naphthol sulphonic acid, 0.2%), sodium metabisulphite (2.4% w/v in distilled water) was added to the above tubes and mixed well. The reaction mixture was […] with 2.5 mL of triple distilled water and kept at 60° C. in water bath for 20 min. For standard, an appropriate amount of potassium dihydrogen phosphate dissolved in triple distilled water containing 2-10 μg phosphorus (Pi) was run simultaneously with the experiment tubes. The optical density of the blue colour was recorded at 620 nm against reagent blank. The values of Pi were converted into phospholipid by multiplying with 25 (a constant calibrated from Pi value of lecithin).
# [3] = plasma phospholipid after 18 h, read-out: % Fall in lipid levels (Triton model) PL
# [4] = plasma total cholesterol after 18 h, read-out: % Fall in lipid levels (Triton model) TC
# [5] = plasma triglycerides after 18 h, read-out: % Fall in lipid levels (Triton model) TG
Compound,inhibition in vivo at 100 mg/kg (sucrose loaded rats),% Fall in blood glucose levels STZ-S 5 h [1],% Fall in blood glucose levels STZ-S 24 h [1],"inhibition in vivo at 100 mg/kg [2, 3]",melting point,"inhibition in vivo at 100 mg/kg [2, 4]","inhibition in vivo at 100 mg/kg [2, 5]"
"CCCCNCC(O)COc1ccccc1C(=O)/C=C/c1ccc(OC)cc1 (centres unmarked) [Compound 31, 2′-[3-n-Butylamino-2-hydroxy-propoxy]-4-methoxy-chalcone]",33.1%,NIL,NIL,3%,106 to 107 °C,,
"COc1ccc(/C=C/C(=O)c2ccc(OCC(O)CN3CCN(c4ccccc4)CC3)cc2)cc1 (centres unmarked) [Compound 20, 4′-[2-Hydroxy-3-(4-phenylpiperazin-1-yl)-propoxy]-4-methoxy-chalcone]",7.78%,NIL,NIL,11%,165 to 167 °C,11%,10%
"CCCCNCC(O)COc1ccc(C(=O)/C=C/c2ccc(OC)cc2)cc1 (centres unmarked) [Compound 27, 4′-[3-n-Butylamino-2-hydroxy-propoxy]-4-methoxy-chalcone]",38%,NIL,NIL,22%,163 to 164 °C,25%,20%
"COc1ccc(/C=C/C(=O)c2cccc(OCC(O)CNC(C)C)c2)cc1 (centres unmarked) [Compound 29, 3′-[2-Hydroxy-3-iso-propylamino-propoxy]-4-methoxy-chalcone]",6.85%,NIL,NIL,27%,102 to 103 °C,33%,27%
"COc1ccc(/C=C/C(=O)c2ccc(OCC(O)CN3CCN(c4ccccc4OC)CC3)cc2)cc1 (centres unmarked) [Compound 24, 4′-[2-Hydroxy-3-{4-(2-methoxyphenyl)-piperazin-1-yl}-propoxy]-4-methoxy-chalcone]",10.8%,,6.18%,15%,97 to 98 °C,24%,14%
